Data set [1] concerns Salmonella enterica serovar Typhimurium DA6192 wild type and LL-37-resistant mutants (waaY, phoP). The experiment in a line: MIC against LL-37-resistant strains in buffer conditions. The class given is cell-based. Also on record: unit not given here. As to conditions: 20 mM sodium phosphate buffer with 0.1% TSB, 16 to 20 h, 37 °C. How it is done: (§1) The LL-37 resistant mutants (DA22427 and DA23307) used in this study were derived from Salmonella enterica serovar Typhimurium DA6192, wild-type and cyclotides-resistant mutants (DA54114 and DA57107) were derived from E. coli MG1655 (wild type) and were kindly provided by Department of Medical Biochemistry and Microbiology, Uppsala University.
(§2) MIC measurements were performed in 20 mM sodium phosphate buffer (PBS), supplemented with 0.1% TSB in 96-well plates (round bottom, Nunc A/S, Roskilde, Denmark) in a total volume of 100 µL. The overnight cultures were diluted 5 × 10^5 CFU/mL in the same medium and 90 µL was transferred into the plates containing 10 µL of 2-fold diluted peptides. […] At least two independent experiments were performed with two technical replicates. In cyclotides, resistant mutant average MIC was reported.

Data set [2] concerns E. coli MG1655 wild type and cyclotides-resistant mutants. The experiment in a line: MIC against cyclotide-resistant strains in buffer conditions. The data set is classed as cell-based, Escherichia coli. Also on record: unit not given here. How it is done: as §1, §2
For data set [3], the system named is Bacillus subtilis CCUG 163BT. The data set is classed as cell-based. How it is done: (§3) The three bacterial strains—Escherichia coli ATCC 25922, Pseudomonas aeruginosa ATCC 27853, and Staphylococcus aureus ATCC 29213—as well as the fungal strain Candida albicans ATCC 90028 were provided by the Department of Clinical Bacteriology, Lund University Hospital. Bacillus subtilis CCUG 163B^T and Bacillus cereus CCUG 7414^T were obtained from the Department of Molecular Sciences, Swedish University of Agricultural Sciences.
(§4) Antimicrobial activities of the peptides were evaluated using the two-step microdilution assay, which is designed for testing AMPs without activity-inhibiting components. Briefly, bacteria were grown to the mid-logarithmic phase at 37 °C in 3% (w/v) tryptic soy broth (TSB) (Merck KGaA, Darmstadt, Germany). The microbial culture was washed twice by centrifugation and resuspension in 10 mM Tris buffer (pH 7.4 at 37 °C, adjusted by HCl). The microbial suspension was quantified by OD600, diluted, and transferred to 96-well untreated polystyrene microplates prepared with 2-fold serial dilutions of the peptides using 50,000 bacteria per well (all dilutions in Tris buffer). These were incubated for 5 h at 37 °C, after which 5 µL of 20% (w/v) TSB was added to each well and the microplates were re-incubated for an additional 6–12 h (depending on the growth rate of each organism). All MICs presented are the medians from triplicate experiments performed independently.

Data set [4] has as its system Bacillus cereus CCUG 7414T. The data set is classed as cell-based.
From the text: as §3
(§5) The standard broth microdilution assay was utilized to assess the MIC of designed peptides according to the guidelines of the Clinical and Laboratory Standards Institute (CLSI). Briefly, bacteria were grown in unbuffered Mueller–Hinton Broth (MHB, VWR International, Leuven, Belgium) as well as buffered (containing 50 mM NaHCO3) medium to the mid-logarithmic phase and were quantified by OD600. The bacterial suspension was diluted in the same medium to reach a final density of 1 × 10^6 colony-forming unit per milliliter (CFU/mL). A volume of 50 µL of the bacterial suspension was added to 96-well plates containing 50 µL of MHB in the absence (viability control) or the presence of the peptides at different concentrations (0.625–80 µM). […] MIC values were derived from 3 sets of independent experiments with different bacterial cultures.

The test system of data set [5] is Bacillus subtilis CCUG 163BT. The data set is classed as cell-based.
From the text: as §3, §5
This is another data set of the same source.

The test system of data set [6] is Escherichia coli ATCC 25922. The class given is cell-based. The settings on record: ATCC 25922, 24 h.
From the text: as §3, §5

Data set [7] has as its system Pseudomonas aeruginosa ATCC 27853. The class given is cell-based. The settings on record: ATCC 27853, 24 h.
From the text: as §3, §5

In data set [8] the test system is human red blood cells (RBCs). The experiment in a line: Hemolysis assay. The class given is cell-based. The settings on record: human RBCs 0.25% in PBS pH 7.4, 80 μM peptide (highest test concentration), 1 h, 37 °C, absorbance 405 nm, relative to 1% Triton X-100. How it is done: The hemolytic assay was conducted by preparing a stock solution of 320 μM peptides in MilliQ water and serially diluted in PBS to give 100 μL test solutions in a 96-well U-bottom microtiter plate (Nunc). Human-type RBCs (red blood cells) were collected from the donor, washed with PBS (pH 7.4) three times, and centrifuged at 1500× g for 60 s. A pellet of RBCs was resuspended to 0.25% (v/v) solution in PBS (pH 7.4). A 100 μL 0.25% suspension of washed RBCs in PBS was dispensed into each well containing serially diluted peptide solutions and incubated at 37 °C for 1 h. The 96-well plate was centrifuged at 150× g for 5 min and aliquots of 100 μL were transferred to a 96-well U-bottomed microtiter plate (Falcon) and the absorbance was measured at 405 nm with an automatic Multiskan Ascent plate reader (Labsystems). The amount of hemolysis was calculated as the percentage of maximum lysis (1% Triton X-100 control) after adjusting for minimum lysis (PBS control).

The target of data set [9] is T1, aureolysin from S. aureus (Staphylococcus aureus, UniProt P81177).
T1 construct: purchased
T1 sequence (P81177 209-509): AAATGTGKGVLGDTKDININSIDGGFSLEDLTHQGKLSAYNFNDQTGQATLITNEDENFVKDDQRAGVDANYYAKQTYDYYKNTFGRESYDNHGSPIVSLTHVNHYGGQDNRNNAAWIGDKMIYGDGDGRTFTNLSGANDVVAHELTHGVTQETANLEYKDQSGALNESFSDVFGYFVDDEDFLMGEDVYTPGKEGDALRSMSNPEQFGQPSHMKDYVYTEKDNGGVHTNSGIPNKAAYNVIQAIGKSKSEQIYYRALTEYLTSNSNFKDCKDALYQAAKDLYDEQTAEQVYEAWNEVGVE
The experiment in a line: Stability in the presence of the protease aureolysin. The class given is in vitro ADME. As to conditions: peptide:enzyme 200:1, 37 °C, RP-HPLC-MS. How it is done: Peptide stability was also assayed in commercially available Gram-positive, S. aureus protease, aureolysin. […] All the samples were then incubated at 37 °C at different incubation times. The reaction was quenched by acidifying with 5 µL of 0.1% formic acid. The samples were analyzed on MS coupled to RP-HPLC.

For data set [10], the system named is Bacillus cereus CCUG 7414T. The data set is classed as cell-based. The settings on record: B. cereus; TSB, Tryptic Soy broth (rich media, unbuffered).
The test system of data set [11] is Bacillus subtilis CCUG 163BT. The class given is cell-based. The settings on record: B. subtilis; TSB, Tryptic Soy broth (rich media, unbuffered).
The conditions of data set [12]: cited from earlier work. How it is done: One of the major limitations of AMPs for clinical use is their inactivation by both endogenous human proteases and proteases secreted from invading microbes. From our previous studies, it was evident that KR-12 and truncated analogs degrade within 10 min in diluted human serum. More recently, we have shown that the KR-12 cyclic dimer peptides were stable for up to 6 h in diluted human serum but the recovery of LL-37 was very low during the precipitation step of the assay, either due to binding of LL-37 with serum components or rapid degradation. We also compared the stability pro ...

Data set [13] concerns Bacillus cereus CCUG 7414T. The class given is cell-based. As to conditions: CCUG 7414, 5 h. How it is done:
as §3, §4

Data set [14] concerns aureolysin. The experiment in a line: commercially available Gram-positive, S. aureus protease, aureolysin. The settings on record: 37 °C, up to 24 h.
Where [15] appears, read: S. typhimurium phoP LL-37-resistant mutant.
The mark [16] stands for this setting: S. typhimurium waaY LL-37-resistant mutant.
[17] abbreviates: E. coli DA54114 cyclotide-resistant mutant, sodium phosphate buffer with 0.1% TSB, average MIC.
[18] abbreviates: E. coli DA57107 cyclotide-resistant mutant, sodium phosphate buffer with 0.1% TSB, average MIC.
The mark [19] stands for this setting: E. coli WT (MG1655), 20 mM sodium phosphate buffer with 0.1% TSB, 16 to 20 h, 37 °C.

The text below walks through data of article PMC9953701 (Biomedicines, 2023).

Read-outs that look alike come from different tables or passages of the source. No end group written: not given here.

On to KRIVKRIKAFLR [KR-12 (Q5K,D9A)], for which the MIC in [1] (S. typhimurium WT (DA6192)) is on record as 10; in data set [1] (setting [15]), 10; in data set [1] (setting [16]), 10; in [2] (setting [17]) it was 1; in data set [2] (setting [18]), 1; in data set [2] (setting [19]), 1. For the same compound, the MIC in data set [3] (CCUG 163, 5 h) was 1.25 µM; in data set [4] (CCUG 7414, 24 h), over 80 µM; in [5] (CCUG 163, 24 h), over 80 µM; in [6] it was 10 µM; in data set [7], 10 µM.
Consider `CC[C@H](C)[C@H](NC(=O)[C@H](CCCCN)NC(=O)[C@H](CCC(=O)O)NC(=O)[C@H](CCCCN)NC(=O)[C@H](CO)NC(=O)[C@H](CCCCN)NC(=O)[C@H](CCCNC(=N)N)NC(=O)[C@H](Cc1ccccc1)NC(=O)[C@H](Cc1ccccc1)NC(=O)[C@H](CC(=O)O)NC(=O)CNC(=O)[C@H](CC(C)C)NC(=O)[C@@H](N)CC(C)C)C(=O)NCC(=O)N[C@@H](CCCCN)C(=O)N[C@@H](CCC(=O)O)C(=O)N[C@@H](Cc1ccccc1)C(=O)N[C@@H](CCCCN)C(=O)N[C@@H](CCCNC(=N)N)C(=O)N[C@H](C(=O)N[C@H](C(=O)N[C@@H](CCC(N)=O)C(=O)N[C@@H](CCCNC(=N)N)C(=O)N[C@H](C(=O)N[C@@H](CCCCN)C(=O)N[C@@H](CC(=O)O)C(=O)N[C@@H](Cc1ccccc1)C(=O)N[C@@H](CC(C)C)C(=O)N[C@@H](CCCNC(=N)N)C(=O)N[C@@H](CC(N)=O)C(=O)N[C@@H](CC(C)C)C(=O)N[C@H](C(=O)N1CCC[C@H]1C(=O)N[C@@H](CCCNC(=N)N)C(=O)N[C@H](C(=O)N[C@@H](CCC(=O)O)C(=O)N[C@@H](CO)C(=O)O)[C@@H](C)O)C(C)C)[C@@H](C)CC)C(C)C)[C@@H](C)CC` [LL-37], for which the MIC was 1.25 µM in data set [3] (B. subtilis, Control: two-step microdilution assay in Tris buffer 10 mM without salts); over 80 µM in data set [4] (B. cereus, MHB, Muller-Hinton broth (rich media, unbuffered)); over 80 µM in data set [5] (B. subtilis, MHB, Muller-Hinton broth (rich media, unbuffered)); over 80 µM in [10]; over 80 µM in data set [11]. For the same compound, the hemolysis in data set [8] was 19–23%. Moreover, the “time to hydrolysis of the Leu31-Val32 peptide bond by aureolysin” value in data set [9] is at most 5 min. Besides, in [12] (diluted human serum), the “recovery during the precipitation step of the serum stability assay” value is recorded as “very low”.
Turning to KRIVQRIKDFLR [KR-12], the MIC in data set [1] (S. typhimurium WT (DA6192)) was 20; in data set [1] (setting [15]), 20; in data set [1] (setting [16]) it was 20; in data set [2] (setting [17]) it was 1; in data set [2] (setting [18]), 1; in data set [2] (setting [19]) it was 1. Further, the MIC in data set [13] is 2.5 µM; in data set [3] (CCUG 163, 5 h), 5 µM; in data set [4] (CCUG 7414, 24 h) it was over 80 µM; in data set [5] (CCUG 163, 24 h), over 80 µM; in [6] it was over 20 µM; in data set [7] it was over 20 µM. Besides, in [12], the “time within which the peptide degrades in diluted human serum” value is on record as at most 10 min.
For the compound Kalata B7, the “time for which the peptide was stable in aureolysin (stable for up to)” value in [9] is at least 24 h.
With LLGDFFRKSKEKIGKEFKRIVQRIKDFLRNLVPRTES, the cleaved bond result in data set [14] is reported as “Leu31-Val32, first_seen, within the first 5 min”.
